From patent US12365687B2 (Hoffmann-La Roche Inc., priority 2021, dated 2025)

How the values were obtained:
[1] = biological target: human GABAA α2β2γ1 receptor (Homo sapiens (Human), UniProt P47869+Q8N1C3); test: Radioligand binding assay for γ1-containing GABAA subtypes, [3H]RO7239181 competition (α2β2γ1)
Experimental: (§1) The affinity of compounds at GABAA γ1 subunit-containing receptors was measured by competition for [^3H]RO7239181 (67.3 Ci/mmol; Roche) binding to membranes from HEK293F cells (ThermoFisher R79007) expressing human (transiently transfected) receptors of composition α5β2γ1, α2β2γ1, α1β2γ1.
(§2) Harvested pellets from HEK293F cells expressing the different GABAA receptor subtypes were resuspended in Mannitol Buffer pH 7.2-7.4 (Mannitol 0.29 M, Triethylamine 10 mM, Acetic acid 10 mM, EDTA 1 mM plus protease inhibitors (20 tablets Complete, Roche Diagnostics Cat. No. 05 056 489 001 per liter)), washed two times and then resuspended at 1:10 to 1:15 dilution in the same buffer. Cell disruption was performed by stirring the suspension in a Parr vessel #4637 at 435 psi for 15 minutes, and then the suspensions were centrifuged at 1000×g for 15 minutes at 4° C. (Beckman Avanti J-HC; rotor JS-4.2). The supernatant (S1) was transferred in a 2 l Schott flask and the pellet (P1) was resuspended with Mannitol Buffer up to 175 ml. The resuspended pellet was transferred into a 250 ml Corning centrifugal beaker and centrifuged at 1500×g for 10 minutes at 4° C. (Beckman Avanti J-HC; rotor JS-4.2). The supernatant (S1) was then transferred in the 2 l Schott flask and the pellet was discarded. The supernatants (S1) were centrifuged in 500 ml Beckman polypropylene centrifugal beaker at 15′000×g for 30 minutes at 4° C. (Beckman Avanti J-20 XP; rotor JLA-10.500). The pellet (P2) was resuspended with Mannitol Buffer 1:1 and frozen at −80° C. The supernatant (S2) was centrifuged in 100 ml Beckman polypropylene centrifugal tubes at 48000×g for 50 minutes at 4° C. (Beckman Avanti J-20 XP; rotor JA-18). The supernatant (S3) was discarded and the pellet (P3) was resuspended with 1:1 Mannitol Buffer. The P2 and P3 protein concentration was determined with the BIORAD Standard assay method with bovine serum albumin as standard and measured on the NANO-Drop 1000. The membrane suspension was aliquots (500 μl per tube) and stored at −80° C. until required.
(§3) Membrane homogenates were resuspended and polytronised (Polytron PT1200E Kinematica AG) in Potassium Phosphate 10 mM, KCl 100 mM binding buffer at pH 7.4 to a final assay concentration determined with a previous experiment.
(§4) Assays were incubated to equilibrium for 1 hour at 4° C. and then, membranes were filtered onto unifilter (96-well white microplate with bonded GF/C filters preincubated 20-50 minutes in 0.3% Polyethylenimine) with a Filtermate 196 harvester (Packard BioScience) and washed 4 times with cold Potassium Phosphate 10 mM pH 7.4, KCl 100 mM binding buffer. After anhydrousing, filter-retained radioactivity was detected by liquid scintillation counting. Ki values were calculated using Excel-Fit (Microsoft) and are the means of two determinations.

[2] = biological target: α2β2γ1 GABAA receptor subtype (Homo sapiens (Human), UniProt P47869+Q8N1C3); test: Two-electrode voltage clamp electrophysiology in Xenopus oocytes expressing GABAA receptors (modulation of GABA EC20 current); format: cell-based; settings: for Efficacy (GABA)%: % modulation of GABA EC20 = 100*(Fold increase-1), α2β2γ1 oocytes, compound at approx. 30-fold Ki; for Fold increase h-GABA-A α2β2γ1 oocyte @ 30-fold Ki: Xenopus oocytes expressing α2β2γ1, compound at approx. 30-fold its Ki α2β2γ1, GABA EC20 current
Experimental: Xenopus laevis oocytes at maturation stages V-VI were used for the expression of cloned mRNA encoding GABAA receptor subunits. Oocytes ready for RNA micro-injection were bought from Ecocyte, Castrop-Rauxel, Germany and stored in modified Barth's medium (composition in mM: NaCl 88, KCl 1, NaHCO3 2.4, HEPES 10, MgSO4 0.82, CaNO3 0.33, CaCl2 0.33, pH=7.5) at 20° C. until the experiment.
Oocytes were plated in 96-well plates for microinjection using the Roboinject automated instrument (MultiChannelSystems, Reutlingen, Germany). Approximately 50 nL of an aqueous solution containing the RNA transcripts for the subunits of the desired GABAA receptor subtype was injected into each oocyte. […] Oocytes were kept in modified Barth's medium (composition in mM: NaCl 88, KCl 1, NaHCO3 […], HEPES 10, MgSO4 0.82, CaNO3 0.33, CaCl2 0.33, pH=7.5) at 20° C. until the experiment.
Electrophysiological experiments were performed using the Roboocyte instrument (MultiChannelSystems, Reutlingen, Germany) on days 3 to 5 after the micro-injection of mRNA. During the experiment the oocytes were constantly superfused by a solution containing (in mM) NaCl 90, KCl 1, HEPES 5, MgCl2 1, CaCl2 1 (pH 7.4). Oocytes were impaled by two glass microelectrodes (resistance: 0.5-0.8 MΩ) which were filled with a solution containing KCl 1M+K-acetate 1.5 M and voltage-clamped to −80 mV. The recordings were performed at room temperature using the Roboocyte two-electrode voltage clamp system (Multichannelsystem). After an initial equilibration period of 1.5 min GABA was added for 1.5 min at a concentration evoking approximately 20% of a maximal current response (EC20). After another rest interval of 2.5 min GABA was again added evoking a response of similar amplitude and shape. […] Current traces were recorded at a digitization rate of 10 Hz during and shortly before and after the GABA application.
Each compound and concentration was tested on at least 3 oocytes. Different oocytes were used for different compound concentrations.
For the analysis, the digitized current traces of the first and second GABA response were superimposed and, if necessary, rescaled to equal maximal amplitudes. The ratio between the two responses during the time interval of test compound application was calculated point by point. The extremum of the resulting “ratio trace” was taken as the efficacy (“Fold increase”) of the compound expressed as “% modulation of GABA EC20” (100*(Fold increase-1)).

[3] = biological target: human GABAA α5β2γ1 receptor (Homo sapiens (Human), UniProt P31644+Q8N1C3); test: Radioligand binding assay for γ1-containing GABAA subtypes, [3H]RO7239181 competition (α5β2γ1)
Experimental: as §1, §2, §3, §4

[4] = biological target: human GABAA α1β3γ2 receptor (Homo sapiens (Human), UniProt P14867+P18507); test: Radioligand binding assay for γ2-containing GABAA subtypes, [3H]Flumazenil competition (α1β3γ2); settings: for γ2/γ1 Selectivity Ratio: Ki α1β3γ2 (nM)/Ki α2β2γ1 (nM); for LogSel: Log[Ki α1β3γ2 (nM)/Ki α2β2γ1 (nM)]
Experimental: The affinity of compounds at GABAA γ2 subunit-containing receptors was measured by competition for [^3H]Flumazenil (81.1 Ci/mmol; Roche) binding to HEK293F cells expressing human (transiently transfected) receptors of composition α1β3γ2.
Harvested pellets from HEK293F cells expressing the different GABAA γ2 receptor subtypes were resuspended in Mannitol Buffer pH 7.2-7.4 and processed as described above for the cells expressing the GABAA γ1 subunit-containing receptors.
Assays were incubated to equilibrium for 1 hour at 4° C. and harvested onto GF/C uni-filters (Packard) by filtration using a Packard harvester and washing with ice-cold wash buffer (50 mM Tris; pH 7.5). After anhydrousing, filter-retained radioactivity was detected by liquid scintillation counting. Ki values were calculated using Excel-Fit (Microsoft) and are the means of two determinations.

[5] = Ki h-GABAA α2β2γ1, [3H]RO7239181 competition binding, human GABAA α2β2γ1
[6] = Ki h-GABAA α2β2γ1, displacement of [3H]RO7239181, membranes of HEK293F cells expressing human receptors, means of two determinations

Compound	Ki [1, 5] [nM]	Ki [1, 6] [nM]	Efficacy (GABA)% [2] [%]	Fold increase h-GABA-A α2β2γ1 oocyte @ 30-fold Ki [2]	Ki [3] [nM]	Ki [4] [nM]	γ2/γ1 Selectivity Ratio [4]	LogSel [4]
Cc1nc2n(n1)-c1ccc(Cl)c(Cl)c1C(c1ncccc1F)=N[C@H]2C [Example 84, (4S)-7,8-dichloro-6-(3-fluoro-2-pyridyl)-2,4-dimethyl-4H-[1,2,4]triazolo[1,5-a][1,4]benzodiazepine]	28.4	28.4	175	2.75	2.8	977	34.4	1.54
CNC(=O)c1cn2c(n1)CN=C(c1ncccc1F)c1c-2ccc(Cl)c1Cl [Example 12, 7,8-dichloro-6-(3-fluoro-2-pyridyl)-N-methyl-4H-imidazo[1,2-a][1,4]benzodiazepine-2-carboxamide]	36.7	36.7	125	2.25	9.3	506	13.8	1.14
C[C@@H]1N=C(c2c(F)cccc2F)c2c(ccc(Cl)c2Cl)-n2nc(C(=O)N3CC4(COC4)C3)nc21 [Example 93, [(4S)-7,8-dichloro-6-(2,6-difluorophenyl)-4-methyl-4H-[1,2,4]triazolo[1,5-a][1,4]benzodiazepin-2-yl]-(2-oxa-6-azaspiro[3.3]heptan-6-yl)methanone]	3.3	3.3	75	1.75	2.25	1290	390.6	2.59
[2H]C([2H])([2H])OC1CN(C(=O)c2nc3n(n2)-c2ccc(Cl)c(Cl)c2C(c2ncccc2F)=N[C@H]3C)C1 [Example 39, [(4S)-7,8-dichloro-6-(3-fluoro-2-pyridyl)-4-methyl-4H-[1,2,4]triazolo[1,5-a][1,4]benzodiazepin-2-yl]-[3-(trideuteriomethoxy)azetidin-1-yl]methanone]	17.7	17.7	89	1.89	6.85	4200	237.9	2.38
C[C@@H]1N=C(c2ncccc2F)c2c(ccc(Cl)c2Cl)-n2nc(C(=O)N3CC[C@H](F)C3)nc21 [Example 79, [(4S)-7,8-dichloro-6-(3-fluoro-2-pyridyl)-4-methyl-4H-[1,2,4]triazolo[1,5-a][1,4]benzodiazepin-2-yl]-[(3S)-3-fluoropyrrolidin-1-yl]methanone]	48.4	48.4	129	2.29	7.8	3720	76.8	1.89
CO[C@H]1CCN(C(=O)c2nc3n(n2)-c2ccc(Cl)c(Cl)c2C(c2ncccc2F)=N[C@H]3C)C1 [Example 89, [(4S)-7,8-dichloro-6-(3-fluoro-2-pyridyl)-4-methyl-4H-[1,2,4]triazolo[1,5-a][1,4]benzodiazepin-2-yl]-[(3S)-3-methoxypyrrolidin-1-yl]methanone]	69.7	69.7	113	2.13	6.15	6350	91.2	1.96
C[C@@H]1N=C(c2c(F)cccc2F)c2c(ccc(C(F)(F)F)c2Cl)-n2ncnc21 [Example 22, (4S)-7-chloro-6-(2,6-difluorophenyl)-4-methyl-8-(trifluoromethyl)-4H-[1,2,4]triazolo[1,5-a][1,4]benzodiazepine]	11.4	11.4	78	1.78	1.02	1560	136.7	2.14
C[C@@H]1N=C(c2c(F)cccc2F)c2c(ccc(C(F)(F)F)c2Cl)-n2nc(C(=O)N3CC(C(F)F)C3)nc21 [Example 122, [(4S)-7-chloro-6-(2,6-difluorophenyl)-4-methyl-8-(trifluoromethyl)-4H-[1,2,4]triazolo[1,5-a][1,4]benzodiazepin-2-yl]-[3-(difluoromethyl)azetidin-1-yl]methanone]	10.6	10.6	91	1.91	3.82	3050	287.8	2.46
C[C@@H]1N=C(c2ncccc2F)c2c(ccc(C(F)(F)F)c2Cl)-n2cc(C(=O)N[C@H]3C[C@H](O)C3)nc21 [Example 165, (4S)-7-chloro-6-(3-fluoro-2-pyridyl)-N-(trans-3-hydroxycyclobutyl)-4-methyl-8-(trifluoromethyl)-4H-imidazo[1,2-a][1,4]benzodiazepine-2-carboxamide]	36.2	43.3	183	2.83	9.55	7770	179.6	2.25
